Experiments:
[1] = system: HTelo (DNA, G4) AGGGTTAGGGTTAGGGTTAGGG; test: emission titration (580 nm); details: lithium cacodylate pH 7.3
[2] = system: c-Myc (DNA, G4) TGAGGGTGGGTAGGGTGGGTAA; test: CD melting (265 nm); details: K+ 1 mM; 10 mM lithium cacodylate; 5 μM DNA, 10 μM compound
[3] = system: HTelo (DNA, G4) AGGGTTAGGGTTAGGGTTAGGG; test: CD melting (295 nm); details: Na+ 100 mM; 10 mM lithium cacodylate; 5 μM DNA, 10 μM compound
[4] = system: HTG4 (DNA, G4) TTGGGTTAGGGTTAGGGTTAGGGA; test: emission titration (580 nm); details: K+ 100 mM, lithium cacodylate pH 7.3
[5] = system: c-Myc (DNA, G4) TGAGGGTGGGTAGGGTGGGTAA; test: emission titration (580 nm); details: K+ 100 mM, lithium cacodylate pH 7.3

Row | Structure (SMILES) | Ka ([1]; K+ 100 mM, 1 μM complex) | Ka ([1]; Na+ 100 mM, 1 μM complex) | ΔTm [2] | ΔTm [3] | Ka ([4]; 1 μM complex) | Ka ([5]; 1 μM complex) | Ka ([1]; K+ 100 mM) | Ka ([1]; Na+ 100 mM) | Ka [4] | Ka [5]
1 | [Cl-].[Pt+2].[c-]1cc(OCCN2CCCCC2)ccc1-c1cccc(-c2ccccn2)n1 | 11.77 ± 1.69 x 10^5 M^-1 | 5.06 ± 0.59 x 10^5 M^-1 | 28.3 °C | 2.8 °C | 19.18 ± 3.60 x 10^5 M^-1 | 21.65 ± 0.64 x 10^5 M^-1 |  |  |  | 
2 | OCC[S-].[Pt+2].[c-]1cc(OCCN2CCCCC2)ccc1-c1cccc(-c2ccccn2)n1 |  |  |  |  |  |  | 4.85 ± 0.66 x 10^5 M^-1 | 4.5 ± 1.54 x 10^5 M^-1 | 16.35 ± 2.30 x 10^5 M^-1 | 15.04 ± 1.18 x 10^5 M^-1
3 | CN(C)CCOc1c[c-]c(-c2cccc(-c3ccccn3)n2)cc1.[Cl-].[Pt+2] |  |  | 30 °C | 3.6 °C |  |  | 10.45 ± 1.13 x 10^5 M^-1 | 6.22 ± 0.34 x 10^5 M^-1 | 14.89 ± 4.37 x 10^5 M^-1 | 17.61 ± 2.87 x 10^5 M^-1
4 | [Cl-].[Pt+2].[c-]1cc(OCCN2CCOCC2)ccc1-c1cccc(-c2ccccn2)n1 |  |  |  |  |  |  | 2.95 ± 0.34 x 10^5 M^-1 | 1.47 ± 0.08 x 10^5 M^-1 | 3.55 ± 0.92 x 10^5 M^-1 | 13.68 ± 1.56 x 10^5 M^-1
5 | CN(C)CCOc1c[c-]c(-c2cccc(-c3ccccn3)n2)cc1.OCC[S-].[Pt+2] |  |  |  |  |  |  | 12.5 ± 0.30 x 10^5 M^-1 | 3.5 ± 1.01 x 10^5 M^-1 | 22.04 ± 9.23 x 10^5 M^-1 | 14.43 ± 7.18 x 10^5 M^-1
6 | OCC[S-].[Pt+2].[c-]1cc(OCCN2CCOCC2)ccc1-c1cccc(-c2ccccn2)n1 |  |  |  |  |  |  | 3.92 ± 0.13 x 10^5 M^-1 | 1.46 ± 0.05 x 10^5 M^-1 | 4.45 ± 0.58 x 10^5 M^-1 | 6.09 ± 0.91 x 10^5 M^-1
